Legend:
E. coli (ATCC25922) = assay: Photobactericidal activity, CFU count, E. coli; conditions: 20 min ambient light (LED); concentration matched to absorption of 8 mg/L CNC-AA
Experimental: In the experimental set-up, the viability of bacteria as a response to intensity of white light exposure and concentration of disinfectant was monitored. This was carried out by calculating the number of bacterial colonies present in solution before and after exposure.
According to the experimental protocol, a suspension of cells (2.6×10^8 cells/ml ±0.5 log) was treated with either AA, CNC or CNC+AA or CNC-AA or PBS (untreated control) at different concentration (FIGS. 7-9). For each set of conditions, the initial culture was equally divided into two. One part was light treated while the other was kept in the dark. After different time periods (FIGS. 7-9), bactericidal activity was quantified by counting colony forming units (CFU) on agar plates. […] Comparison of the number of CFUs in the treated samples (AA, CNC, CNC+AA and CNC-AA) to untreated (PBS) placed under light, enabled the inventors to quantify the specific photo-bactericidal activity of the test agents. Killing effect was calculated using the following expression (equation 2).
Killing=Log 10(#CFUUntreated)−Log 10(CFUtreated) (2)

P. aeruginosa biofilms = system: P. aeruginosa biofilms; design: dose or concentration left out as unconfirmed; conditions: combined with laser irradiation at specific wavelengths; cited from earlier work

SMILES | toxicity against E. coli (E. coli (ATCC25922)) | concentration necessary to eradicate P. aeruginosa biofilms (P. aeruginosa biofilms)
CN(C)c1ccc2nc3ccc(N)cc3[s+]c2c1.[Cl-] [AA, azure A] | significantly reduced compared to CNC-AA | –
CN(C)c1ccc2nc3ccc(=[N+](C)C)cc-3sc2c1 [methylene blue] | – | 0.01 % wt/wt

— patent US20220273813A1, “PHOTOSENSITIZER-CONJUGATED ANTIMICROBIAL CELLULOSE NANOCRYSTALS AND METHODS OF SYNTHESIZING AND USING SAME” (HNU MATERIALS INC., priority 2019, published 2022)
